Test results from patent US8106055B2, “Substituted amide compounds” (Gruenenthal GmbH, priority 2007, dated 2012).

Columns and labels:
[1] = target: T1, serotonin (5-HT) reuptake (Rattus norvegicus, UniProt P31652); assay: Inhibition of serotonin (5HT) reuptake in synaptosomes from rat brain; type: biochemical; conditions: test concentration of 10 μM
T1 construct: synaptosomes are freshly isolated from areas of the rat brain; from tissue; host or cells: rat brain synaptosomes (P2 fraction)
How it was run: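 Freshly isolated rat brain synaptosomes (P2 fraction) used for 5-HT reuptake. Test compound at 10 μM, activity given as % inhibition.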

[2] = target: T2, bradykinin 1 receptor (B1R) of the rat (Rattus norvegicus, UniProt P97583); assay: Functional investigation on the rat bradykinin 1 receptor (B1R), Ca2+ FLIPR assay in CHO K1 rB1R cells; type: cell-based; conditions: B1R antagonism rat; test substance 10 μM; Ca2+ FLIPR, CHO K1 rB1R cells
T2 construct: expressed in transfected cells; host or cells: CHO K1 cells
T2 sequence (P97583 1-337): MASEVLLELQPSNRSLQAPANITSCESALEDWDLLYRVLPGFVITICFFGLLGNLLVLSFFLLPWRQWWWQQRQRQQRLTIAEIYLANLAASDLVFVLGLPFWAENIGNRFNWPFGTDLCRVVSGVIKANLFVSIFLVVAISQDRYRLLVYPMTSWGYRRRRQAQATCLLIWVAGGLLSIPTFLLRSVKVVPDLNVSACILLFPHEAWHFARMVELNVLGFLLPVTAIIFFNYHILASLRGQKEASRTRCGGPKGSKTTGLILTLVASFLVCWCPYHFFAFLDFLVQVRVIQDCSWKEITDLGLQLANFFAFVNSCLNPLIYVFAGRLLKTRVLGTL
How it was run: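 Cells were dye-loaded with Fluo-4 plus probenecid, then test substances added and Ca2+ influx compared with agonist control for % activation. After 10-20 min, EC80 agonist (Lys-Des-Arg9-bradykinin human; Des-Arg9-bradykinin rat) was applied; suppression gave % inhibition and IC50 values.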

T1 sequence (P31652 whole entry): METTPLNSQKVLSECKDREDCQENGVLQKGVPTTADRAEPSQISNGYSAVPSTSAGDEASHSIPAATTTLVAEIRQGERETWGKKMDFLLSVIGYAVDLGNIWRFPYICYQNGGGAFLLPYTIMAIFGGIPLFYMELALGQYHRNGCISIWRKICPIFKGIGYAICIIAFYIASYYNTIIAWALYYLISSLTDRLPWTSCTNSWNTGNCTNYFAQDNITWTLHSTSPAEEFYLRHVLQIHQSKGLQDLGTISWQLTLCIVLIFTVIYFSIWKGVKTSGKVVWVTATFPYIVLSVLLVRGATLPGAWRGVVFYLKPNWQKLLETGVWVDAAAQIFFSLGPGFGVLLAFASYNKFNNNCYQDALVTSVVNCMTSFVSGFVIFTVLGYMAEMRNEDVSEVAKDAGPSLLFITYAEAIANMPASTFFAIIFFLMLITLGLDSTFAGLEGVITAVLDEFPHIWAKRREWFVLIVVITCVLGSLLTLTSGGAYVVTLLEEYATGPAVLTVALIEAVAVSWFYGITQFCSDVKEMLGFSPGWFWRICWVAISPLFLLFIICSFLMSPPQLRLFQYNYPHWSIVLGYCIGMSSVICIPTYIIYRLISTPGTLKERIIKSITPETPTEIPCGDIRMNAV

| Structure (SMILES) | 5-HT (inhibition of reuptake of serotonin, % inhibition) [1] [%] | B1R Ant. r [10 μM] % Inhibition [2] [%] |
| --- | --- | --- |
| CN(C)C(c1ccc(F)cc1)C1CCC(NC(=O)COCCN(C)S(=O)(=O)c2c(Cl)cccc2Cl)CC1 (stereo not shown) [Example 363] | 73 | 29 |
| CN(C)C(c1cccc(F)c1)C1CCC(NC(=O)COCCN2CCN(S(=O)(=O)c3ccccc3)CC2)CC1 (stereo not shown) [Example 364] | 95 | −9 |
| COc1cc(C)c(S(=O)(=O)N2CCC(OCC(=O)NC3CCC(C(c4ccc(F)cc4)N(C)C)CC3)C2)c(C)c1C (stereo not shown) [Example 365] | 90 | 2 |
| COc1cc(C)c(S(=O)(=O)N2CCN(CCOCC(=O)NCC3CCC(C(c4ccc(F)cc4)N(C)C)CC3)CC2)c(C)c1C (stereo not shown) [Example 366] | 96 | 16 |
| COc1ccc(S(=O)(=O)N2CCCCC2COCC(=O)NCC2CCC(C(c3ccc(Cl)cc3)N(C)C)CC2)cc1OC (stereo not shown) [Example 367] | 89 | 2 |
| CN(C)C(c1ccc(F)cc1)C1CCC(CCNC(=O)COCCN(C)S(=O)(=O)c2cccc(C(F)(F)F)c2)CC1 (stereo not shown) [Example 368] | 95 | 17 |
| CN(C)C(c1ccc(F)cc1)C1CCC(NC(=O)COC2CCN(S(=O)(=O)c3ccc(Cl)cc3)C2)CC1 (stereo not shown) [Example 370] | 83 | 3 |
| Cc1ccc(S(=O)(=O)N2CCC(OCC(=O)NC3CCC(C(c4ccc(F)cc4)N(C)C)CC3)C2)cc1 (stereo not shown) [Example 371] | 85 | 5 |
| COc1cc(C)c(S(=O)(=O)N(CCOCC(=O)NC2CCC(C(c3cccc(F)c3)N(C)C)CC2)Cc2ccccc2)c(C)c1 (stereo not shown) [Example 372] | 89 | 22 |
| COc1ccc(S(=O)(=O)N2Cc3ccccc3CC2COCC(=O)NCC2CCC(C(CCc3ccccc3)N(C)C)CC2)cc1 (stereo not shown) [Example 373] | 85 | 12 |
| COc1ccc(S(=O)(=O)N2Cc3ccccc3CC2COCC(=O)NCCC2CCC(C(c3ccc(Cl)cc3)N(C)C)CC2)cc1 (stereo not shown) [Example 374] | 90 | 11 |
| CN(C)C(c1ccc(Cl)cc1)C1CCC(CCNC(=O)COC2CCN(S(=O)(=O)c3ccccc3)C2)CC1 (stereo not shown) [Example 375] | 88 | 6 |
| CN(C)C(c1cccc(F)c1)C1CCC(CCNC(=O)COC2CCN(S(=O)(=O)c3ccccc3)C2)CC1 (stereo not shown) [Example 376] | 88 | 12 |
| CN(C)C(c1ccc(F)cc1)C1CCC(CCNC(=O)COCCN(C)S(=O)(=O)c2ccc(Cl)cc2)CC1 (stereo not shown) [Example 377] | 88 | 25 |
| COc1cc(C)c(S(=O)(=O)N(C)CCOCC(=O)NCCC2CCC(C(c3ccc(Cl)cc3)N(C)C)CC2)c(C)c1 (stereo not shown) [Example 378] | 83 | 101 |
| COc1ccc(S(=O)(=O)N(C)CCOCC(=O)NCC2CCC(C(c3ccc(Cl)cc3)N(C)C)CC2)cc1OC (stereo not shown) [Example 379] | 81 | 49 |
| CN(C)C(c1ccc(F)cc1)C1CCC(NC(=O)COC2CCN(S(=O)(=O)c3ccc(F)cc3)C2)CC1 (stereo not shown) [Example 381] | 79 | 12 |
